In patent publication US5239083A, “Indole derivatives which inhibit steroid 5α reductase” (Kyowa Hakko Kogyo Co., Ltd., priority 1991, dated 1993):

System: male dd mice
Assay: Acute Toxicity Test (oral, mice)
Type: in vivo
Conditions: oral 300 mg/kg, mortality observed seven days after administration
Protocol: Test compounds (300 mg/kg) were orally administered to male dd mice weighing 20±1 g (each group consists of three animals). Minimum lethal dose (MLD) was determined by observing mortality seven days after the administration.

Row | Compound | Acute toxicity (MLD), minimum lethal dose
1 | 4-{2-[3-[1-(1-butylpentyl)indol-5-yl]isocrotonoyl amino]phenoxy}butyric acid [Compound 20] | > 300 mg/kg
2 | C/C(=C\C(=O)Nc1ccccc1OCCCC(=O)O)c1ccc2c(ccn2C(c2ccccc2)c2ccccc2)c1 [Compound 2, 4-{2-[3-(1-benzhydrylindol-5-yl)isocrotonoylamino]phenoxy}butyric acid] | > 300 mg/kg
3 | CCCCCn1ccc2cc(/C(C)=C/C(=O)Nc3ccccc3OCCCC(=O)O)ccc21 [Compound 6, 4-{2-[3-(1-pentylindol-5-yl)isocrotonoylamino]phenoxy}butyric acid] | > 300 mg/kg
4 | CCCCCCn1ccc2cc(/C(C)=C/C(=O)Nc3ccccc3OCCCC(=O)O)ccc21 [Compound 7, 4-{2-[3-(1-hexylindol-5-yl)isocrotonoylamino]phenoxy}butyric acid] | > 300 mg/kg
5 | CCC(C)n1ccc2cc(/C(C)=C/C(=O)Nc3ccccc3OCCCC(=O)O)ccc21 (stereo not shown) [Compound 15, 4-{2-[3-[1-(1-methylpropyl)indol-5-yl]isocrotonoylamino]phenoxy}butyric acid] | > 300 mg/kg
6 | CCCC(C)n1ccc2cc(/C(C)=C/C(=O)Nc3ccccc3OCCCC(=O)O)ccc21 (stereo not shown) [Compound 16, 4-{2-[3-[1-(1-methylbutyl)indol-5-yl]isocrotonoylamino]phenoxy}butyric acid] | > 300 mg/kg
7 | CCCCC(C)n1ccc2cc(/C(C)=C/C(=O)Nc3ccccc3OCCCC(=O)O)ccc21 (stereo not shown) [Compound 17, 4-{2-[3-[1-(1-methylpentyl)indol-5-yl]isocrotonoylamino]phenoxy}butyrate] | > 300 mg/kg
8 | CCCCC(CC)n1ccc2cc(/C(C)=C/C(=O)Nc3ccccc3OCCCC(=O)O)ccc21 (stereo not shown) [Compound 18, 4-{2-[3-[1-(1-ethylpentyl)indol-5-yl]isocrotonoylamino]phenoxy}butyric acid] | > 300 mg/kg
9 | CCCC(c1ccccc1)n1ccc2cc(/C(C)=C/C(=O)Nc3ccccc3OCCCC(=O)O)ccc21 (stereo not drawn) [Compound 41, 4-{2-[3-[1-(α-propylbenzyl)indol-5-yl]isocrotonoylamino]phenoxy}butyric acid] | > 300 mg/kg

System: steroid 5α-reductase
Assay: Inhibition effects on steroid 5α-reductase activity (rat prostate enzyme, [4-14C]-testosterone)
Type: biochemical, male rats
Conditions: pH 6.5, 37° C., 20 minutes
Protocol: The measurements of inhibition effects of test compounds on steroid 5α-reductase activity were performed according to the method described by Liang et al. [J. Biol. Chem., 259, 734 (1984)] as follows.
The prostates from male rats were homogenated in three tissue volumes of 20 mM sodium phosphate buffer (pH 6.5; containing 0.32M sucrose and 1 mM dithiothreitol). The homogenate was centrifuged at 140,000 X g for one hour. The precipitate was suspended in the buffer described above and the suspension was centrifuged at 140,000 X g for one hour. The precipitate was resuspended in the buffer described above and the solution (30-50 mg protein/ml) was used as enzyme in following assay.
[4-^14 C]-testosterone (1.5 nmol), NADPH (75 nmol), the enzyme (1 mg protein) and test compound in a total volume of 0.5 ml of 40 mM sodium phosphate buffer [pH 6.5, containing 1 mM dithiothreitol] was incubated at 37° C. After 20 minutes the enzyme activity was stopped by the addition of 2 ml of ethyl acetate. The mixture was then centrifuged at 1,000 g, for 5 minutes. The ethyl acetate layer was transferred to another tube and evaporated to dryness. The steroids were taken up in 50 μl of ethyl acetate and separated by thin layer chromatography (TLC) on silica gel in a developing solvent (ethyl acetate: cyclohexane=1:1). The radioactivity of testosterone and dihydrotestosterone on the TLC plate was measured by a TLC scanner.

Row | Compound | inhibition rate (%), 10^-7 M
10 | 4-{2-[3-[1-(1-butylpentyl)indol-5-yl]isocrotonoyl amino]phenoxy}butyric acid [Compound 20] | 79%
11 | 4-{2-[3-[1-(1-propylbutyl)indol-5-yl]isocrotonoyl amino]phenoxy}butyric acid [Compound 19] | 94%
12 | C/C(=C\C(=O)Nc1ccccc1OCCCC(=O)O)c1ccc2c(ccn2C(c2ccccc2)c2ccccc2)c1 [Compound 2, 4-{2-[3-(1-benzhydrylindol-5-yl)isocrotonoylamino]phenoxy}butyric acid] | 95%
13 | CCCCCn1ccc2cc(/C(C)=C/C(=O)Nc3ccccc3OCCCC(=O)O)ccc21 [Compound 6, 4-{2-[3-(1-pentylindol-5-yl)isocrotonoylamino]phenoxy}butyric acid] | 81%
14 | CCCC(C)n1ccc2cc(/C(C)=C/C(=O)Nc3ccccc3OCCCC(=O)O)ccc21 (stereo not shown) [Compound 16, 4-{2-[3-[1-(1-methylbutyl)indol-5-yl]isocrotonoylamino]phenoxy}butyric acid] | 88%
15 | CCCCC(CC)n1ccc2cc(/C(C)=C/C(=O)Nc3ccccc3OCCCC(=O)O)ccc21 (stereo not shown) [Compound 18, 4-{2-[3-[1-(1-ethylpentyl)indol-5-yl]isocrotonoylamino]phenoxy}butyric acid] | 90%
16 | CCCC(C)C(C)n1ccc2cc(/C(C)=C/C(=O)Nc3ccccc3OCCCC(=O)O)ccc21 (stereo not shown) [Compound 22, 4-{2-[3-[1-(1,2-dimethylpentyl)indol-5-yl]isocrotonoylamino]phenoxy}butyric acid] | 70%
17 | C/C(=C\C(=O)Nc1ccccc1OCCCC(=O)O)c1ccc2c(ccn2C(C)c2ccccc2)c1 (stereo not drawn) [Compound 38, 4-{2-[3-[1-(α-methylbenzyl)indol-5-yl]isocrotonoylamino]phenoxy}butyric acid] | 78%
18 | CCC(c1ccccc1)n1ccc2cc(/C(C)=C/C(=O)Nc3ccccc3OCCCC(=O)O)ccc21 (stereo not drawn) [Compound 40, 4-{2-[3-[1-(α-ethylbenzyl)indol-5-yl]isocrotonoylamino]phenoxy}butyric acid] | 78%
19 | CCCC(c1ccccc1)n1ccc2cc(/C(C)=C/C(=O)Nc3ccccc3OCCCC(=O)O)ccc21 (stereo not drawn) [Compound 41, 4-{2-[3-[1-(α-propylbenzyl)indol-5-yl]isocrotonoylamino]phenoxy}butyric acid] | 90%
20 | C/C(=C\C(=O)Nc1ccc(F)cc1OCCCC(=O)O)c1ccc2c(ccn2C(c2ccccc2)c2ccccc2)c1 [Compound 48, 4-{2-[3-(1-benzhydrylindol-5-yl)isocrotonoylamino]-5-fluorophenoxy}butyric acid] | 93%
21 | C/C(=C\C(=O)Nc1ccccc1OCCCC(=O)O)c1ccc2c(ccn2C(c2ccccc2)c2ccc(F)cc2)c1 (stereo not shown) [Compound 57, 4-{2-[3-[1-(4-fluorobenzhydryl)indol-5-yl]isocrotonoylamino]phenoxy}butyricacid] | 92%
22 | C/C(=C\C(=O)Nc1ccccc1OCCCC(=O)O)c1ccc2c(ccn2C(c2ccccc2)c2ccccc2F)c1 (stereo not shown) [Compound 58, 4-{2-[3-[1-(2-fluorobenzhydryl)indol-5-yl]isocrotonoylamino]phenoxy}butyricacid] | 93%
23 | C/C(=C\C(=O)Nc1ccccc1OCCCC(=O)O)c1ccc2c(ccn2C(c2ccc(F)cc2)c2ccc(F)cc2)c1 [Compound 59, 4-{2-[3-[1-(4,4'-difluorobenzhydryl)indol-5-yl]isocrotonoylamino]phenoxy}butyric acid] | 92%
24 | COc1ccc(C(c2ccc(OC)cc2)n2ccc3cc(/C(C)=C/C(=O)Nc4ccccc4OCCCC(=O)O)ccc32)cc1 [Compound 60, 4-{2-[3-[1-(4,4-dimethoxybenzhydryl)indol-5-yl]isocrotonoylamino]phenoxy}butyric acid] | 87%
25 | C/C(=C\C(=O)Nc1ccccc1OCCCC(=O)O)c1ccc2c(ccn2C(c2ccccc2)c2ccccn2)c1 (stereo not shown) [Compound 63, 4-{2-[3-[1-[phenyl-(2-pyridyl)methyl]indol-5-yl]isocrotonoylamino]phenoxy}butyric acid] | 72%

Row | Compound | inhibition rate (%), 10^-7 M
26 | CCCC(CCC)n1ccc2cc(/C(C)=C/C(=O)Nc3ccc(F)cc3OCCCC(=O)O)ccc21 [Compound 67] | 98%
27 | CCCC(CC)n1ccc2cc(/C(C)=C/C(=O)Nc3ccccc3OCCCC(=O)O)ccc21 (stereo not shown) [Compound 68, 4-{2-[3-[1-(1-ethylbutyl)indol-5-yl]isocrotonoylamino]phenoxy}butyric acid] | 92%
28 | C/C(=C\C(=O)Nc1ccccc1OCCCC(=O)O)c1ccc2c(ccn2C(C)CCCC(C)C)c1 (stereo not shown) [Compound 76, 4-{2-[3-[1-(1,5-dimethylhexyl)indol-5-6l]isocrotonoylamino]phenoxy}butyric acid] | 70%
29 | C/C(=C\C(=O)Nc1ccccc1OCCCC(=O)O)c1ccc2c(ccn2C(CC(C)C)c2ccccc2)c1 (stereo not drawn) [Compound 77, 4-{2-[3-[1-[α-(2-methyl)-propylbenzyl]indol-5-yl]isocrotonoylamino]phenoxy}butyric acid] | 97%
30 | CCCC(c1ccccc1C)n1ccc2cc(/C(C)=C/C(=O)Nc3ccccc3OCCCC(=O)O)ccc21 (stereo not drawn) [Compound 78, 4-{2-[3-[1-(2-methyl-α-propylbenzyl)indol-5-yl]isocrotonoylamino]phenoxy}butyric acid] | 94%
31 | CCCCC(c1ccccc1C)n1ccc2cc(/C(C)=C/C(=O)Nc3ccccc3OCCCC(=O)O)ccc21 (stereo not drawn) [Compound 79, 4-{2-[3-[1-(α-butyl-2-methylbenzyl)indol-5-yl]isocrotonoylamino]phenoxy}butyric acid] | 90%
32 | C/C(=C\C(=O)Nc1ccccc1OCCCC(=O)O)c1ccc2c(ccn2C(c2ccccc2)c2ccc(C(F)(F)F)cc2)c1 (stereo not shown) [Compound 83] | 90%
33 | C/C(=C\C(=O)Nc1ccccc1OCCCC(=O)O)c1ccc2c(ccn2C(c2ccccc2)c2cccnc2)c1 (stereo not shown) [Compound 84] | 66%
34 | CCCC(CCC)n1ccc2cc(/C(=C/C(=O)Nc3ccccc3OCCCC(=O)O)CC)ccc21 [Compound 88, 4-{2-[3-[1-(1-propylbutyl)indol-5-yl]-cis-2-pentenoylamino]phenoxy}butyric acid] | 95%
35 | CCCC(CCC)n1ccc2cc(/C(=C/C(=O)Nc3ccc(F)cc3OCCCC(=O)O)CC)ccc21 [Compound 89, 4-{2-[3-[1-(1-propylbutyl)indol-5-yl]-cis-2-pentenoylamino]-5-fluorophenoxy}butyric acid] | 95%
36 | CCCCC(CCC)n1ccc2cc(/C(=C/C(=O)Nc3ccccc3OCCCC(=O)O)CC)ccc21 (stereo not drawn) [Compound 90, 4-{2-[3-[1-(1-propylpentyl)indol-5-yl]-cis-2-pentenoylamino]phenoxy}butyricacid] | 79%
37 | CCCCC(CCC)n1ccc2cc(/C(=C/C(=O)Nc3ccc(F)cc3OCCCC(=O)O)CC)ccc21 (stereo not drawn) [Compound 91, 4-{2-[3-[1-(1-propylpentyl)indol-5-yl]-cis-2-pentenoylamino]-5-fluorophenoxy}butyric acid] | 98%
38 | CC/C(=C\C(=O)Nc1ccccc1OCCCC(=O)O)c1ccc2c(ccn2C(CC(C)C)CC(C)C)c1 [Compound 92, 4-{2-[3-[1-[3-methyl-1-(2-methylpropyl)butyl]indol-5-yl]-cis-2-pentenoylamino]phenoxy}butyric acid] | 91%
39 | CC/C(=C\C(=O)Nc1ccccc1OCCCC(=O)O)c1ccc2c(ccn2C(c2ccccc2)c2ccccc2)c1 [Compound 93, 4-{2-[3-(1-benzhydrylindol-5-yl)-cis-2-pentenoylamino]phenoxy}butyric acid] | 94%
40 | CC/C(=C\C(=O)Nc1ccccc1OCCCC(=O)O)c1ccc2c(ccn2C(c2ccc(F)cc2)c2ccc(F)cc2)c1 [Compound 94, 4-{2-[3-[1-(4,4'-difluorobenzhydryl)indol-5-yl]-cis-2-pentenoylaminmo]phenoxy}butyric acid] | 97%
